Results on two molecules are retold here after PMC4657727 (Biochemistry, 2013).

The target of series [1] is T1, A3+B3 (heteromeric CNGA3 + CNGB3) channels (Homo sapiens, UniProt Q16281+Q9NQW8).
T1 sequence (Q16281 1-694): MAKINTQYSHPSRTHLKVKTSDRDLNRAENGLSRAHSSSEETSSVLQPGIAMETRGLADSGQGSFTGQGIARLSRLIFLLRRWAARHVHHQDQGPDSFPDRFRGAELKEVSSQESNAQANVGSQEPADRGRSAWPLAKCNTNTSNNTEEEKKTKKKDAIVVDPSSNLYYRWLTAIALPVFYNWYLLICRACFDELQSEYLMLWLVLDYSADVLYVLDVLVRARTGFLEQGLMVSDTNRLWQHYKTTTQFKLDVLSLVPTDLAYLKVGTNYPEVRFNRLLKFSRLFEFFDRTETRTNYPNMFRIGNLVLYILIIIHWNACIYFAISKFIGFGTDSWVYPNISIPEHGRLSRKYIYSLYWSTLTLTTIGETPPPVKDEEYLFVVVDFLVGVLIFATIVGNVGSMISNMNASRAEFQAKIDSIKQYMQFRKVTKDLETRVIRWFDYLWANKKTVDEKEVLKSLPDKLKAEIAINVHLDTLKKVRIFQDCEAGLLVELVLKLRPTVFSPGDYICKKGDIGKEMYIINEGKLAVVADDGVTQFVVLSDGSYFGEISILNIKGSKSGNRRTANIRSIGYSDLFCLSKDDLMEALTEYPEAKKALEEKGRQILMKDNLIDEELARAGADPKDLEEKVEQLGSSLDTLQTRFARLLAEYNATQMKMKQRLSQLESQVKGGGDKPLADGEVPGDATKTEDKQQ
T1 sequence (Q9NQW8 1-809): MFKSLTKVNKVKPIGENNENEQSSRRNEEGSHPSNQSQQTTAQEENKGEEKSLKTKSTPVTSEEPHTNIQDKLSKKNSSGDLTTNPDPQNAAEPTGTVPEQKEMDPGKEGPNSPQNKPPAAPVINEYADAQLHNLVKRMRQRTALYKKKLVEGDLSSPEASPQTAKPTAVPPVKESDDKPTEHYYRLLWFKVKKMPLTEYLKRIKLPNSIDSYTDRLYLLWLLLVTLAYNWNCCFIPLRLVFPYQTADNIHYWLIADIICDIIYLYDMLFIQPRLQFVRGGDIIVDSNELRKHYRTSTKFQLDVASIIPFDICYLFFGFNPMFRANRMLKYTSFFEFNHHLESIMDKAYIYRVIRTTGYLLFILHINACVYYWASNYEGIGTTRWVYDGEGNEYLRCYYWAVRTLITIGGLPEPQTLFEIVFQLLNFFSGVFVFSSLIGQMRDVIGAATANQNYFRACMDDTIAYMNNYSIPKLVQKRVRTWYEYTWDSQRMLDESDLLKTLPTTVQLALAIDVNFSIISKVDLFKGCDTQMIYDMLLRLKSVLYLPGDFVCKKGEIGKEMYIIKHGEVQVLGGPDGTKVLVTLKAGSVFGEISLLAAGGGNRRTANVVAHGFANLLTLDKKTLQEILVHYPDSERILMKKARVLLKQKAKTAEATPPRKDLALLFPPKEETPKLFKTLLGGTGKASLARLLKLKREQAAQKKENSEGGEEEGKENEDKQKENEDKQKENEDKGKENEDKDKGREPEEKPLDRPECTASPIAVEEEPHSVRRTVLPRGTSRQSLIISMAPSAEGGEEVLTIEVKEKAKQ
The series is described as follows: inside-out patch clamp, macroscopic current dose-response, Hill fit. It counts as cell-based. (In general: Patch clamp records ionic current or voltage across a cell membrane.)

Series [2] addresses T2, A3 (homomeric CNGA3) channels (Homo sapiens, UniProt Q16281).
T2 sequence (Q16281 1-694): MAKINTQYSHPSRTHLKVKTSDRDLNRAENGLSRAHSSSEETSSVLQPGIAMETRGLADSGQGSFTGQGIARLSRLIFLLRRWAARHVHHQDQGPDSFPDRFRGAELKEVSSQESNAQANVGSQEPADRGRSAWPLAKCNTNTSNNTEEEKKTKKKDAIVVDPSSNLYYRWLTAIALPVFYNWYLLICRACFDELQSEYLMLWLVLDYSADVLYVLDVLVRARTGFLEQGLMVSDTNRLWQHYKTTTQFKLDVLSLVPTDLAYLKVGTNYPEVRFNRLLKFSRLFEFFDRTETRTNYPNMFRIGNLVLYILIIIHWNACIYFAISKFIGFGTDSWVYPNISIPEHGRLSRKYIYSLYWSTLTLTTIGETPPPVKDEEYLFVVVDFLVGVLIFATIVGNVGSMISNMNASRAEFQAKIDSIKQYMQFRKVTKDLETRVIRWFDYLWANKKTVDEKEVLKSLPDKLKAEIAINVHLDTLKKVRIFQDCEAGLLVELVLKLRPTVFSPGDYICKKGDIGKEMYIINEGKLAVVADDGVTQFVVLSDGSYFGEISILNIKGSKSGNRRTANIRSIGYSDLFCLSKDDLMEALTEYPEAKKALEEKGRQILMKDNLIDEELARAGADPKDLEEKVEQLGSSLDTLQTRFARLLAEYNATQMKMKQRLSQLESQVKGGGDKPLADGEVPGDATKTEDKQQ
The description is as above. Format: cell-based.

Series [3] can be described thus: anti-FLAG immunoblot, intact oocytes exposed to MMPs 1 h. To be noted: glycan lost; control: glycosylated form of A3wt subunits. Background: Immunoblotting shows a protein as a band on a membrane.

Usually EC50 stands for the concentration at which the effect is half-maximal.

As to `Nc1nc2c(ncn2[C@@H]2O[C@@H]3COP(=O)(O)O[C@H]3[C@H]2O)c(=O)[nH]1` [cGMP], the EC50 came to 15.2 ± 1.1 µM in series [1] and 5.6 ± 1 µM in series [2].

B1: CNGA3: A3N339Q (protein)
parent chain: MAKINTQYSHPSRTHLKVKTSDRDLNRAENGLSRAHSSSEETSSVLQPGIAMETRGLADSGQGSFTGQGIARLSRLIFLLRRWAARHVHHQDQGPDSFPDRFRGAELKEVSSQESNAQANVGSQEPADRGRSAWPLAKCNTNTSNNTEEEKKTKKKDAIVVDPSSNLYYRWLTAIALPVFYNWYLLICRACFDELQSEYLMLWLVLDYSADVLYVLDVLVRARTGFLEQGLMVSDTNRLWQHYKTTTQFKLDVLSLVPTDLAYLKVGTNYPEVRFNRLLKFSRLFEFFDRTETRTNYPNMFRIGNLVLYILIIIHWNACIYFAISKFIGFGTDSWVYPNISIPEHGRLSRKYIYSLYWSTLTLTTIGETPPPVKDEEYLFVVVDFLVGVLIFATIVGNVGSMISNMNASRAEFQAKIDSIKQYMQFRKVTKDLETRVIRWFDYLWANKKTVDEKEVLKSLPDKLKAEIAINVHLDTLKKVRIFQDCEAGLLVELVLKLRPTVFSPGDYICKKGDIGKEMYIINEGKLAVVADDGVTQFVVLSDGSYFGEISILNIKGSKSGNRRTANIRSIGYSDLFCLSKDDLMEALTEYPEAKKALEEKGRQILMKDNLIDEELARAGADPKDLEEKVEQLGSSLDTLQTRFARLLAEYNATQMKMKQRLSQLESQVKGGGDKPLADGEVPGDATKTEDKQQ
For B1, in series [3], the “other: proteolytic processing” value was “increases”.
